PMC10698194 (Nature Communications, 2023)
Where “and” joins values, the source holds several entries; their conditions need not be identical. Identical values can stand only once. Bridge positions count the residues as written; N and C are the ends. Square brackets hold non-standard residues; d marks the D form. Peptide text beside a SMILES is read from it. * marks the point of attachment. X1 = C=CCN1CC[C@]23c4c5ccc(O)c4O[C@H]2[C@H](N*)CC[C@@]3(O)[C@H]1C5

Key:
mouse KOR [1] = biological target: T1, mouse KOR (Mus musculus, UniProt P33534); assay: biochemical; assay type: binding; parameters: expressed in transfected cells; settings: for specific [3H]DPN binding, normalized to 100%: replicates
T1 sequence (P33534 whole entry): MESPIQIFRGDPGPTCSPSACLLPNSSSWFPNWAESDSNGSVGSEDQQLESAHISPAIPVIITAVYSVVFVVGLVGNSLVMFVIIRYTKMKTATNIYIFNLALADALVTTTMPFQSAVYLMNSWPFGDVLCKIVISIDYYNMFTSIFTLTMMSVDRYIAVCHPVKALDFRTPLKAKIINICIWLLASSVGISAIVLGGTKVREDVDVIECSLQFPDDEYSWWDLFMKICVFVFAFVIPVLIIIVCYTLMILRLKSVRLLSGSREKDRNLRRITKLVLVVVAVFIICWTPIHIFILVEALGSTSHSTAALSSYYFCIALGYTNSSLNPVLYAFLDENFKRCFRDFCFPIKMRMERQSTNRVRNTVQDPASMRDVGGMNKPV

mouse KOR [2] = biological target: T1, mouse KOR; assay: cell-based; parameters: expressed in transfected cells
human KOR = human KOR (Homo sapiens, UniProt P41145); assay: cell-based; parameters: expressed in transfected cells; host or cells: HEK293, transient
Chain of human KOR (P41145 whole entry): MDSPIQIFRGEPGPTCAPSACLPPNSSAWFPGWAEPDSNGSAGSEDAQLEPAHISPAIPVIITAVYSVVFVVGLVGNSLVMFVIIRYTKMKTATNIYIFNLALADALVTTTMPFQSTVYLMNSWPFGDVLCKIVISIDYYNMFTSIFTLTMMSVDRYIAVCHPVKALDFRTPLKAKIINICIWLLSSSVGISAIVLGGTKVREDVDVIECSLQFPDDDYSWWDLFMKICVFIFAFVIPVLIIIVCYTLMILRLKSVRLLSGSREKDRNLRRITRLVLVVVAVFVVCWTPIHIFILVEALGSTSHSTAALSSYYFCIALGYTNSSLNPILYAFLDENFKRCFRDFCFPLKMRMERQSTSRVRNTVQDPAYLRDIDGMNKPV

mouse KOR, Gαi2 = biological target: T2, mouse KOR, Gαi2 (Mus musculus, UniProt P33534); assay: TRUPATH BRET G protein assay, Gαi2; assay type: cell-based
T2 construct: expressed in transfected cells; host or cells: HEK293T (ATCC, CRL-3216), transient
T2 sequence (P33534 whole entry): as the sequence (P33534 whole entry) above

human MOR = biological target: T3, human MOR (Homo sapiens, UniProt P35372); assay: [35S]GTPγS binding assay, CHO membranes; assay type: biochemical; settings: relative to DAMGO
T3 construct: expressed in transfected cells
T3 sequence (P35372 whole entry): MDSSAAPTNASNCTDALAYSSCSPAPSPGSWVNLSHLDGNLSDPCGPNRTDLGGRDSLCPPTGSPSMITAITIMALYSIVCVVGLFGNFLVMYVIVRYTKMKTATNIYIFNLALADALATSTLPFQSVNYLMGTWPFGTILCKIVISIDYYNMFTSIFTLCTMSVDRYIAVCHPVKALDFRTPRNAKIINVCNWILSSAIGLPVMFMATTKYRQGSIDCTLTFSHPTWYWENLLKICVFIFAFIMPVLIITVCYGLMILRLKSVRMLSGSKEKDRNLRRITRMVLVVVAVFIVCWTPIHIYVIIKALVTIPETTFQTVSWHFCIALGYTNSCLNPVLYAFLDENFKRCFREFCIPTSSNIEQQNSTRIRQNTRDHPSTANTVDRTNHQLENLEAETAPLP

## C=CCN1CC[C@]23c4c5ccc(O)c4O[C@H]2[C@H](NC(=O)[C@@H](Cc2ccccc2)NC(=O)[C@@H](NC(=O)[C@@H]2CSCC(=O)N[C@@H](CC(=O)O)C(=O)N[C@@H](C)C(=O)N[C@H](Cc4ccc(O)cc4)C(=O)N[C@H](C)C(=O)N[C@@H](C(C)C)C(=O)N2)[C@@H](C)O)CC[C@@]3(O)[C@H]1C5 [DNCP-β-NalA(3)] ({CH2CO}-DA[dY][dA]VCT[dF]-X1; thioether N-6)
Mouse KOR [1]; Log [ligand] (M) -5
  specific [3H]DPN binding, normalized to 100%: 4.711 and 4.268 and 3.134
Mouse KOR [1]; Log [ligand] (M) -5.5
  specific [3H]DPN binding, normalized to 100%: 9.049 and 8.477 and 7.931
Mouse KOR [1]; Log [ligand] (M) -6
  specific [3H]DPN binding, normalized to 100%: 13.9379 and 12.8705 and 12.6183
Mouse KOR [1]; Log [ligand] (M) -6.5
  specific [3H]DPN binding, normalized to 100%: 21.3908 and 20.9203 and 21.0807
Mouse KOR [1]; Log [ligand] (M) -7
  specific [3H]DPN binding, normalized to 100%: 41.59 and 36.2221 and 28.4597
Mouse KOR [1]; Log [ligand] (M) -7.5
  specific [3H]DPN binding, normalized to 100%: 75.8729 and 62.6776 and 54.9604
Mouse KOR [1]; Log [ligand] (M) -8
  specific [3H]DPN binding, normalized to 100%: 98.7879 and 86.9193 and 89.7517
Mouse KOR [1]; Log [ligand] (M) -8.5
  specific [3H]DPN binding, normalized to 100%: 102.113 and 95.9134 and 97.9933
Mouse KOR [1]; Log [ligand] (M) -9
  specific [3H]DPN binding, normalized to 100%: 101.53 and 101.749 and 103.107
Mouse KOR [1]; Log [ligand] (M) -9.5
  specific [3H]DPN binding, normalized to 100%: 100
Mouse KOR [1]; [3H]DPN 1 nM, read-out: Ki
  Ki: 24 nM
Mouse KOR [2]; HEK-293T, read-out: Emax cAMP assay
  Emax: 99 ± 1%
Mouse KOR [2]; read-out: EC50 cAMP assay
  EC50: 14 nM

## CC(C)=CCN1CCC2(C)c3cc(O)ccc3CC1C2C (centres unmarked) [Pentazocine, pentazocine]
Human KOR
  EC50: 1010 nM
  β-arrestin-2 (Figure 3j): 38
Human KOR; HEK293, read-out: Emax β-arrestin-1 recruitment
  Emax: 38 ± 24%
Mouse KOR, Gαi2; Log [ligand] (M) -5
  Gαi2, normalized response (single replicate values): 63.0631 and 33.772 and 78.2944 and 66.7992 and -8.535 and 43.2571 and 15.0067 and 36.1153
Mouse KOR, Gαi2; Log [ligand] (M) -6
  Gαi2, normalized response (single replicate values): 81.8094 and 43.1452 and 67.7496 and 22.5401 and 66.7992 and 32.8986 (2×) and 41.9735
Mouse KOR, Gαi2; Log [ligand] (M) -7
  Gαi2, normalized response (single replicate values): 33.772 (2×) and 29.0855 and 9.357 and 40.4321 and 39.4904 and 59.2657 and 49.0034
Mouse KOR, Gαi2; Log [ligand] (M) -8
  Gαi2, normalized response (single replicate values): 36.1153 and 16.1974 and 29.0855 and -23.6023 and 39.4904 and 26.3069 and 33.8403 and 44.3168
Mouse KOR, Gαi2; Log [ligand] (M) -9
  Gαi2, normalized response (single replicate values): -10.7504 and 16.1974 and 32.6004 and -17.0105 and 12.1816 and 27.2485 and 41.3738 and 15.0258
Mouse KOR, Gαi2; Log [ligand] (M) -10
  Gαi2, normalized response (single replicate values): -1.377 and -15.4369 and -0.06023 (2×) and -7.594 and -5.71 and -13.0937
Mouse KOR, Gαi2; Log [ligand] (M) -11
  Gαi2, normalized response (single replicate values): -3.721 and -2.549 and 15.0258 and 1.823 and -26.4273 and -45.2609 and 40.4321 and -15.4369
Mouse KOR, Gαi2; Log [ligand] (M) -12
  Gαi2, normalized response (single replicate values): 20.884 and 5.653 and -14.2653 and 5.59 and 13.1233 and -22.6606 and 37.607 and -1.377
Mouse KOR, Gαi2; source data of Figure 3j, U50,488 about 100
  Gαi2 (Figure 3j): 42.2346

## DAMGO
Human MOR
  Emax (%) MOR: 100%
